SMILES strings stand for the structures.

The data set in a line: Stability in Human Liver Microsomes. The data set is classed as in vitro ADME. The following applies: pooled human liver microsomes 0.5 mg/mL protein, 1 mM NADPH, 37° C., N=1; for half-life: both sexes. As to the method: The liver microsomes stability of compounds of Examples 1-4 was compared with that of TOVOK, and the compound of Example 5 with CUDC-101.
The metabolic stability of compounds of the invention was tested using pooled liver microsomes prepared from mixed-gender humans, with 1 mM NADPH. The samples were analyzed using an LTQ-Orbitrap XL mass spectrometer. HRMS was used to determine the peak area response ratio (peak area corresponding to test compound or control divided by that of an analytical internal standard) without running a standard curve. HRMS scan was performed in an appropriate m/z range in order to detect all plausible metabolites
The assay was run with a single incubation (N=1). Incubated test compounds at 37° C. in buffer containing 0.5 mg/mL microsomal protein. Initiated the reaction by adding cofactors, sampling at 0, 10, 20, 30, and 60 minutes, Incubated positive control (5 μM testosterone) in parallel and sampling at 0, 10, and 30 minutes.
The control compound testosterone was run in parallel to verify the enzymatic activity of the microsomes. After the final time point, fluorimetry was used to confirm the addition of NADPH to the reaction mixture. T1/2 of control met the internal acceptance criteria.
• Liquid Chromatography • Column: Thermo BDS Hypersil C18 30×2.0 mm, 3 μm, with guard column • M.P. Buffer: 25 mM ammonium formate buffer, pH 3.5 • Aqueous Reservoir (A): 90% water, 10% buffer • Organic Reservoir (B): 90% acetonitrile, 10% buffer • Flow Rate: 300 μL/minute • Gradient Program:
• Total Run Time: 3.5 minutes • Autosampler: 10 μL Injection Volume • Autosampler Wash: water/methanol/2-propanol: 1/1/1; with 0.2% formic acid • Mass Spectrometer • Instrument: PE SCIEX API 3000 • Interface: Turbo Ionspray • Mode: Multiple Reaction Monitoring • Method: 3.5 minute duration
On the technique in general: Liver microsomes are vesicles of endoplasmic reticulum, rich in cytochrome P450 enzymes.

With `[2H]C1(Oc2cc3ncnc(Nc4cccc(C#C)c4)c3cc2NC(=O)/C=C/CN(C)C)CCOC1` [Example 4, (E)-4-(dimethylamino)-N-(4-(3-ethynylphenylamino)-7-(3-D-tetrahydrofuran-3-yloxy)quinazolin-6-yl)but-2-enamide], the “Percentage remaining 0 min” value is 100%, the “Percentage remaining 10 min” value is given as 94%, the “Percentage remaining 20 min” value is on record as 87% and the “Percentage remaining 30 min” value is reported as 79%. The “Percentage remaining 60 min” value was determined as 70% and the Half life was greater than 1 h.
Consider `[2H]C([2H])([2H])N(C/C=C/C(=O)Nc1cc2c(Nc3ccc(F)c(Cl)c3)ncnc2cc1O[C@H]1CCOC1)C([2H])([2H])[2H]` [Example 1, (S,E)-N-(4-(3-chloro-4-fluorophenylamino)-7-(tetrahydrofuran-3-yloxy)quinazolin-6-yl)-4-(D6-dimethylamino)but-2-enamide], for which the “Percentage remaining 0 min” value was found to be 100%, the “Percentage remaining 10 min” value is given as 97%, the “Percentage remaining 20 min” value is given as 90% and the “Percentage remaining 30 min” value is 85%. The “Percentage remaining 60 min” value is 75% and the Half life is greater than 1 h.
Turning to `[2H]C1(Oc2cc3ncnc(Nc4ccc(F)c(Cl)c4)c3cc2NC(=O)/C=C/CN(C)C)CCOC1` (stereo not drawn) [Example 3, (E)-N-(4-(3-chloro-4-fluorophenylamino)-7-((3-D)-tetrahydrofuran-3-yloxy)quinazolin-6-yl)-4-(dimethylamino)but-2-enamide], the “Percentage remaining 0 min” value is on record as 100%, the “Percentage remaining 10 min” value is 97%, the “Percentage remaining 20 min” value was 89% and the “Percentage remaining 30 min” value is recorded as 84%. The “Percentage remaining 60 min” value is listed as 73% and the Half life was greater than 1 h.
With `[2H]C([2H])([2H])N(C/C=C/C(=O)Nc1cc2c(Nc3cccc(C#C)c3)ncnc2cc1O[C@H]1CCOC1)C([2H])([2H])[2H]` [Example 2, (S,E)-4-(D6-dimethylamino)-N-(4-(3-ethynylphenylamino)-7-(tetrahydrofuran-3-yloxy)quinazolin-6-yl)but-2-enamide], the “Percentage remaining 0 min” value is given as 100%, the “Percentage remaining 10 min” value is recorded as 95%, the “Percentage remaining 20 min” value stood at 87% and the “Percentage remaining 30 min” value is given as 80%. In addition, the “Percentage remaining 60 min” value is 67% and the Half life was greater than 1 h.
What is called half-life is the time in which the quantity being followed falls by half. In the case of `C#Cc1cccc(Nc2ncnc3cc(OC)c(OCCCCCCC(=O)NO)cc23)c1` [CUDC-101, reference compound], the half-life is 0.333 h, the “Percentage remaining 0 min” value came out at 100%, the “Percentage remaining 10 min” value is listed as 74% and the “Percentage remaining 20 min” value came to 48%. Moreover, the “Percentage remaining 30 min” value worked out at 35% and the “Percentage remaining 60 min” value stood at 14%.
Regarding `CN(C)C/C=C/C(=O)Nc1cc2c(Nc3ccc(F)c(Cl)c3)ncnc2cc1O[C@H]1CCOC1` [TOVOK, reference compound], the half-life is greater than 1 h, the “Percentage remaining 0 min” value is on record as 100%, the “Percentage remaining 10 min” value came to 95% and the “Percentage remaining 20 min” value worked out at 85%. Also, the “Percentage remaining 30 min” value turned out to be 75% and the “Percentage remaining 60 min” value came out at 60%.
`[2H]C([2H])([2H])Oc1cc2ncnc(Nc3cccc(C#C)c3)c2cc1OCCCCCCC(=O)NO` [Example 5, 7-(4-(3-ethynylphenylamino)-7-(D3-methoxy)quinazolin-6-yloxy)-N-hydroxyheptanamide]: the half-life came out at 0.467 h, the “Percentage remaining 0 min” value is 100%, the “Percentage remaining 10 min” value is recorded as 85% and the “Percentage remaining 20 min” value turned out to be 68%. For the same molecule, the “Percentage remaining 30 min” value was determined as 48% and the “Percentage remaining 60 min” value came out at 25%.
